According to patent publication US11162959B2, “Time-resolved fluorescent immunochromatographic test strip for detecting vancomycin as well as preparation method and application thereof” (BEIJING DIAGREAT BIOTECHNOLOGIES CO., LTD., priority 2019, dated 2021):

System: vancomycin monoclonal antibody
Experiment: Cross-reaction rate measurement of the test strip of Embodiment 1 (interference testing in human serum containing 20 μg/mL vancomycin)
Format: binding, Balb/c mouse
Description: 20 ul of sample is accurately pipetted into 180 ul of sample diluent and mixed fully.
80 uL of sample solution to be tested is accurately pipetted into a test strip loading well with a micropipette, and reaction is carried out at 20° C. for 15 min. The test strip is inserted into a load carrier of a fluorescence detector, an item to be tested is selected by touching a display screen, a “Detection Start” button is pressed, the fluorescence detector automatically scans the test strip, and a test result is read through the display screen of an instrument or printed.
After the test is completed, the instrument obtains the ratio of the time-resolved fluorescent intensity of the detection area on the test strip to the time-resolved fluorescent intensity of the quality control area, and calculates the content of vancomycin in the sample to be tested according to the following formula. Y=(A−D)/[1+(x/C)^B]+D
Several vancomycin analogs and common drugs are selected for interference testing.

[1] = test concentration 1,000 μg/mL, added to human serum with vancomycin 20 μg/mL

| SMILES | Cross reaction rate [1] [%] | other results |
| --- | --- | --- |
| Cn1c(=O)c2[nH]cnc2n(C)c1=O [Theophylline] | <0.001 |  |
| NC(=O)N1c2ccccc2C=Cc2ccccc21 [Carbamazepine] | <0.001 |  |
| CCCC(CCC)C(=O)O [Valproic acid] | <0.001 |  |
| O=C(O)c1ccccc1O [Salicylic acid] | <0.001 |  |
| C[C@H]1O[C@@H](O[C@H]2[C@@H](O)C[C@H](O[C@H]3[C@@H](O)C[C@H](O[C@H]4CC[C@@]5(C)[C@H](CC[C@@H]6[C@@H]5C[C@@H](O)[C@]5(C)[C@@H](C7=CC(=O)OC7)CC[C@]65O)C4)O[C@@H]3C)O[C@@H]2C)C[C@H](O)[C@@H]1O [Digoxin] | <0.001 |  |
| O=C1NC(=O)C(c2ccccc2)(c2ccccc2)N1 [Phenytoin] | <0.001 |  |
| CC(=O)Oc1ccccc1C(=O)O [Aspirin] | <0.001 |  |
| CN[C@H](CC(C)C)C(=O)N[C@H]1C(=O)N[C@@H](CC(N)=O)C(=O)N[C@H]2C(=O)N[C@H]3C(=O)N[C@H](C(=O)N[C@H](C(=O)O)c4cc(O)cc(O)c4-c4cc3ccc4O)[C@H](O)c3ccc(c(Cl)c3)Oc3cc2cc(c3O[C@@H]2OC(CO)[C@@H](O)[C@H](O)[C@H]2O[C@H]2C[C@](C)(N)[C@H](O)[C@H](C)O2)Oc2ccc(cc2Cl)[C@H]1O.Cl (stereo partly drawn) [Vancomycin] |  | Cross reaction rate (test concentration 20 μg/mL, human serum sample): 100% |
| CC(C)C[C@@H](N)C(=O)N[C@H]1C(=O)N[C@@H](CC(N)=O)C(=O)N[C@H]2C(=O)N[C@H]3C(=O)N[C@H](C(=O)N[C@H](C(=O)O)c4cc(O)cc(O)c4-c4cc3ccc4O)[C@H](O)c3ccc(c(Cl)c3)Oc3cc2cc(c3O[C@@H]2O[C@H](CO)[C@@H](O)[C@H](O)[C@H]2O[C@H]2C[C@](C)(N)[C@H](O)[C@H](C)O2)Oc2ccc(cc2Cl)[C@H]1O [Norvancomycin] |  | Cross reaction rate (test concentration 100 μg/mL, added to human serum with vancomycin 20 μg/mL): <1% |
